The subject of the assay is mouse model of renal fibrosis (UUO). In words: Mouse model of renal fibrosis (unilateral ureteral obstruction, UUO). It is filed as in vivo. Conditions: for urea nitrogen level: model 17.56±0.48; for serum creatinine level: model 32.48±0.87; for urine protein level: model 888.5±264.8; for extent of renal fibrosis, pathological staining (H&E, Masson, Sirius red): FIG. 2, control compound 25 mg/kg, losartan 50 mg/kg; for body weight compared with the UUO model group / kidney weight compared with the UUO model group: gavage once daily 14 days, not statistically different (P>0.05). As for the experimental part: The therapeutic effect of the compounds of the present invention (as exemplified by Compound 1-1 obtained in Example 1) on renal fibrosis was determined using a mouse model of renal fibrosis. The method was as follows:
Grouping of animals: male C57BL/6J mice aged 8 weeks were given adaptive feeding for 3 days and grouped into a sham operation group, a sham operation-treatment group, a Unilateral ureteral obstruction (UUO) model group, a low-dose (10 mg/kg) treatment group, a medium-dose (25 mg/kg) treatment group, a high-dose (50 mg/kg) treatment group, a medium-dose (25 mg/kg) treatment group of indole analogue 3-[(1-methyl-1H-indole-2-carbonyl)amino]propionic acid disclosed in CN2019107285315, and a positive control group of losartan (50 mg/kg), with 10 animals in each group. Mice in the model and the treatment groups were anesthetized by intraperitoneal injection of 0.5% sodium pentobarbital at a dose of 0.1 mL/10 g. The mice were fixed on the operating table and cut open in layers from the right side of the mid-abdomen to locate the left kidney, and the ends of the ureter were ligated, while the ureter was cut off between the two ligations; the sham operation group was operated as described above and the ligations were not performed. Post-operative organs were repositioned, sutured, and sterilized with iodophor after suturing was completed. Immediately after operation, the drug was administered by gavage once daily for 14 days. Urine sample collection: animals were placed in separate metabolic cages by group on days 0, 5, 10 and 14 after modelling, without food or water, and urine samples were collected from each group of mice.
The protein levels in urine were determined using Coomassie brilliant blue (CBB) method by using urine protein quantitative test kit (Nanjing Jiancheng Bioengineering Institute). CBB working solution was prepared according to the kit instructions. 0.05 mL of each urine sample was mixed with 3 mL of CBB working solution, the mixture was left to stand for 5 min, and the absorbance value of each sample was determined at 595 nm. The protein levels in each group of urine samples were calculated according to the protein standardization formula: urine protein levels (mg/L)=(measured OD−blank OD)/(standard OD−blank OD)×563 mg/L.
Collection of serum sample: orbital blood from each mouse was collected in an EP tube, placed at 37° C. for 20 minutes, and centrifuged to obtain the upper layer of serum.
Collection of plasma sample: orbital blood from each mouse was collected in an anticoagulation tube, mixed well and stored at 4° C. for later use.
Determination of creatinine levels in urine and serum by the picric acid colorimetric method: creatinine levels in urine and serum were determined by using the creatinine test kit (Nanjing Jiancheng Bioengineering Institute). According to the kit instructions, 1.5 mL of urine sample or serum sample and 0.5 mL of picric acid solution, 0.5 mL of 0.5 mol/L sodium hydroxide solution were mixed, heated in water bath at 37° C. for 10 minutes. The absorbance value of each sample was determined using a UV spectrophotometer at a wavelength of 510 nm. Creatinine levels in samples of each group were calculated according to the formula: creatinine level (μmol/L) in serum or urine=(measured OD value−blank OD value)/(standard OD value−blank OD value)×50 μmol/L×(dilution ratio 201).
Determination of urea nitrogen level in plasma by diacetyl monoxime method: urea nitrogen level was determined was determined by using blood urea nitrogen (BUN) test kit (Nanjing Jiancheng Bioengineering Institute). According to the kit instructions, 0.05 mL of anticoagulated plasma samples were mixed with 1 mL of oxime solution and 1 mL of acid working solution, and the mixtures were placed in a boiling water bath for 15 min. A UV-visible spectrophotometer was used to determine the absorbance values of each tube at a wavelength of 520 nm. […]

SMILES strings stand for the structures.

`Cn1c(C(=O)NCCC(=O)O)cc2ccccc21` [3-[(1-methyl-1H-indole-2-carbonyl)amino]propionic acid, reference compound]: the “extent of renal fibrosis, pathological staining (H&E, Masson, Sirius red)” value was “shows less improvement in fibrotic tissue proliferation and renal tubular lumen dilation”; the “body weight compared with the UUO model group” value is “slight increase in body weight”; the “kidney weight compared with the UUO model group” value was “slight decrease in kidney weight”. Also, for the setting “25 mg/kg gavage 14 days”, the “creatinine level reduced compared with the model group” value (“creatinine level reduced” for short) was found to be 18.3%, the “urea nitrogen level reduced compared with the model group” value (from here on “urea nitrogen level reduced”) was determined as 20.6%, the “urine protein level reduced compared with the model group” value (“urine protein level reduced” for short) was found to be 30.1% and the urea nitrogen level worked out at 13.94 ± 0.42 mmol/L. For the setting “25 mg/kg gavage 14 days”, this molecule showed a serum creatinine level of 26.52 ± 0.86 µmol/L and a urine protein level of 621 ± 81.3 mg/L.

For the molecule `CC(=O)OCCCNC(=O)c1c(C=O)c2ccccc2n1C` [compound 1-1, propyl 3-[(3-formyl-1-methyl-1H-indole-2-carbonyl)amino]acetate], the “extent of renal fibrosis, pathological staining (H&E, Masson, Sirius red)” value is “significantly attenuates tubular lumen dilatation and glomerular atrophy in a dose-dependent manner”; the “body weight compared with the UUO model group” value was “slight increase in body weight”; the “kidney weight compared with the UUO model group” value is listed as “slight decrease in kidney weight”. Also, under “10 mg/kg gavage 14 days”, the “creatinine level reduced” value turned out to be 17.2%, the “urea nitrogen level reduced” value was found to be 24.7%, the “urine protein level reduced” value is 27.4% and the urea nitrogen level was determined as 13.23 ± 0.62 mmol/L. For the same molecule, where the note is “10 mg/kg gavage 14 days”, the serum creatinine level was 26.88 ± 0.86 µmol/L and the urine protein level came out at 645 ± 165 mg/L. Where the note is “25 mg/kg gavage 14 days”, the “creatinine level reduced” value is on record as 20.7%, the “urea nitrogen level reduced” value is given as 30.0%, the “urine protein level reduced” value was 37.7% and the urea nitrogen level came out at 12.30 ± 0.33 mmol/L. For the setting “25 mg/kg gavage 14 days”, this molecule had a serum creatinine level of 25.76 ± 1.31 µmol/L and a urine protein level of 554 ± 143 mg/L. Where the note is “50 mg/kg gavage 14 days”, the “creatinine level reduced” value was 27.6%, the “urea nitrogen level reduced” value is listed as 37.7%, the “urine protein level reduced” value is 52.6% and the urea nitrogen level is 10.94 ± 0.42 mmol/L. For the setting “50 mg/kg gavage 14 days”, this molecule yielded a serum creatinine level of 23.52 ± 0.86 µmol/L and a urine protein level of 421 ± 82.3 mg/L.

Source of the values: patent US12692232B2, “Indole carboxamide compound, preparation therefor and use thereof” (NANJING RUISHUNING MEDICAL TECHNOLOGY CO., LTD., priority 2021, dated 2026).
